# Source: PubChem BioAssay (NCI)
#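 Values below derive from 48-hour exposures of cells grown in 96-well plates, with endpoints linearly interpolated between the two concentrations bracketing the appropriate inhibition level. At the TGI there is no net growth.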
# Experiments:
# Assay in all cases: NCI tumour cell line growth inhibition, 48 h
# 786-0 renal = tested on: 786-0 renal
# A549 NSCLC = tested on: A549 NSCLC
# ACHN renal = tested on: ACHN renal
# BT-549 breast = tested on: BT-549 breast
# CAKI-1 renal = tested on: CAKI-1 renal
# CCRF-CEM leukemia = tested on: CCRF-CEM leukemia
# COLO 205 colon = tested on: COLO 205 colon
# DU-145 prostate = tested on: DU-145 prostate
# EKVX NSCLC = tested on: EKVX NSCLC
# HCC-2998 colon = tested on: HCC-2998 colon
# HCT-116 colon = tested on: HCT-116 colon
# HCT-15 colon = tested on: HCT-15 colon
# HL-60(TB) leukemia = tested on: HL-60(TB) leukemia
# HOP-62 NSCLC = tested on: HOP-62 NSCLC
# HOP-92 NSCLC = tested on: HOP-92 NSCLC
# HS 578T breast = tested on: HS 578T breast
# HT29 colon = tested on: HT29 colon
# IGROV1 ovarian = tested on: IGROV1 ovarian
# KM12 colon = tested on: KM12 colon
# LOX IMVI melanoma = tested on: LOX IMVI melanoma
# M14 melanoma = tested on: M14 melanoma
# MCF7 breast = tested on: MCF7 breast
# MDA-MB-231 breast = tested on: MDA-MB-231 breast
# MDA-MB-435 = tested on: MDA-MB-435
# MDA-N = tested on: MDA-N
# MOLT-4 leukemia = tested on: MOLT-4 leukemia
# NCI-H226 lung = tested on: NCI-H226 lung
# NCI-H23 lung = tested on: NCI-H23 lung
# NCI-H460 lung = tested on: NCI-H460 lung
# NCI-H522 lung = tested on: NCI-H522 lung
# NCI/ADR-RES ovarian = tested on: NCI/ADR-RES ovarian
# OVCAR-3 ovarian = tested on: OVCAR-3 ovarian
# OVCAR-4 ovarian = tested on: OVCAR-4 ovarian
# OVCAR-5 ovarian = tested on: OVCAR-5 ovarian
# OVCAR-8 ovarian = tested on: OVCAR-8 ovarian
# PC-3 prostate = tested on: PC-3 prostate
# RXF 393 renal = tested on: RXF 393 renal
# SF-268 CNS = tested on: SF-268 CNS
# SF-295 CNS = tested on: SF-295 CNS
# SF-539 CNS = tested on: SF-539 CNS
# SK-MEL-2 melanoma = tested on: SK-MEL-2 melanoma
# SK-MEL-28 melanoma = tested on: SK-MEL-28 melanoma
# SK-MEL-5 melanoma = tested on: SK-MEL-5 melanoma
# SK-OV-3 ovarian = tested on: SK-OV-3 ovarian
# SN12C renal = tested on: SN12C renal
# SNB-19 CNS = tested on: SNB-19 CNS
# SNB-75 CNS = tested on: SNB-75 CNS
# SW-620 colon = tested on: SW-620 colon
# TK-10 renal = tested on: TK-10 renal
# U251 CNS = tested on: U251 CNS
# UACC-257 melanoma = tested on: UACC-257 melanoma
# UACC-62 melanoma = tested on: UACC-62 melanoma
# UO-31 renal = tested on: UO-31 renal
# A498 renal = tested on: A498 renal
# K-562 leukemia = tested on: K-562 leukemia
# MALME-3M melanoma = tested on: MALME-3M melanoma
# RPMI-8226 leukemia = tested on: RPMI-8226 leukemia
# SR leukemia = tested on: SR leukemia
structure (smiles),measurement,setting,value
COc1cccc(CC2C(=O)N=C(NC(C)=O)N2C)c1OC(C)=O (centres undefined),TGI,786-0 renal,> 100 µM
same,TGI,A549 NSCLC,> 100 µM
same,TGI,ACHN renal,> 100 µM
same,TGI,BT-549 breast,> 100 µM
same,TGI,CAKI-1 renal,> 100 µM
same,TGI,CCRF-CEM leukemia,> 100 µM
same,TGI,COLO 205 colon,> 100 µM
same,TGI,DU-145 prostate,> 100 µM
same,TGI,EKVX NSCLC,> 100 µM
same,TGI,HCC-2998 colon,> 100 µM
same,TGI,HCT-116 colon,> 100 µM
same,TGI,HCT-15 colon,> 100 µM
same,TGI,HL-60(TB) leukemia,> 100 µM
same,TGI,HOP-62 NSCLC,> 100 µM
same,TGI,HOP-92 NSCLC,> 100 µM
same,TGI,HS 578T breast,> 100 µM
same,TGI,HT29 colon,> 100 µM
same,TGI,IGROV1 ovarian,> 100 µM
same,TGI,KM12 colon,> 100 µM
same,TGI,LOX IMVI melanoma,> 100 µM
same,TGI,M14 melanoma,> 100 µM
same,TGI,MCF7 breast,> 100 µM
same,TGI,MDA-MB-231 breast,> 100 µM
same,TGI,MDA-MB-435,> 100 µM
same,TGI,MDA-N,> 100 µM
same,TGI,MOLT-4 leukemia,> 100 µM
same,TGI,NCI-H226 lung,> 100 µM
same,TGI,NCI-H23 lung,> 100 µM
same,TGI,NCI-H460 lung,> 100 µM
same,TGI,NCI-H522 lung,> 100 µM
same,TGI,NCI/ADR-RES ovarian,> 100 µM
same,TGI,OVCAR-3 ovarian,> 100 µM
same,TGI,OVCAR-4 ovarian,> 100 µM
same,TGI,OVCAR-5 ovarian,> 100 µM
same,TGI,OVCAR-8 ovarian,> 100 µM
same,TGI,PC-3 prostate,> 100 µM
same,TGI,RXF 393 renal,> 100 µM
same,TGI,SF-268 CNS,> 100 µM
same,TGI,SF-295 CNS,> 100 µM
same,TGI,SF-539 CNS,> 100 µM
same,TGI,SK-MEL-2 melanoma,> 100 µM
same,TGI,SK-MEL-28 melanoma,> 100 µM
same,TGI,SK-MEL-5 melanoma,> 100 µM
same,TGI,SK-OV-3 ovarian,> 100 µM
same,TGI,SN12C renal,> 100 µM
same,TGI,SNB-19 CNS,> 100 µM
same,TGI,SNB-75 CNS,> 100 µM
same,TGI,SW-620 colon,> 100 µM
same,TGI,TK-10 renal,> 100 µM
same,TGI,U251 CNS,> 100 µM
same,TGI,UACC-257 melanoma,> 100 µM
same,TGI,UACC-62 melanoma,> 100 µM
same,TGI,UO-31 renal,> 100 µM
CC(C)C1(Cl)CCC2C3(C)CCCC(C)(C(=O)O)C3CC(Cl)C2(Cl)C1Cl (centres undefined),TGI,786-0 renal,> 100 µM
same,TGI,A498 renal,> 100 µM
same,TGI,A549 NSCLC,> 100 µM
same,TGI,ACHN renal,> 100 µM
same,TGI,BT-549 breast,> 100 µM
same,TGI,CAKI-1 renal,> 100 µM
same,TGI,CCRF-CEM leukemia,> 100 µM
same,TGI,COLO 205 colon,37.2 µM
same,TGI,EKVX NSCLC,91.3 µM
same,TGI,HCC-2998 colon,81.9 µM
same,TGI,HCT-116 colon,> 100 µM
same,TGI,HCT-15 colon,> 100 µM
same,TGI,HL-60(TB) leukemia,62.6 µM
same,TGI,HOP-92 NSCLC,> 100 µM
same,TGI,HS 578T breast,> 100 µM
same,TGI,HT29 colon,50.4 µM
same,TGI,IGROV1 ovarian,> 100 µM
same,TGI,K-562 leukemia,> 100 µM
same,TGI,KM12 colon,37.7 µM
same,TGI,LOX IMVI melanoma,> 100 µM
same,TGI,M14 melanoma,> 100 µM
same,TGI,MALME-3M melanoma,> 100 µM
same,TGI,MCF7 breast,> 100 µM
same,TGI,MDA-MB-231 breast,> 100 µM
same,TGI,MDA-MB-435,62.3 µM
same,TGI,MDA-N,> 100 µM
same,TGI,MOLT-4 leukemia,> 100 µM
same,TGI,NCI-H226 lung,78.6 µM
same,TGI,NCI-H23 lung,> 100 µM
same,TGI,NCI-H460 lung,75.2 µM
same,TGI,NCI-H522 lung,> 100 µM
same,TGI,NCI/ADR-RES ovarian,> 100 µM
same,TGI,OVCAR-4 ovarian,84 µM
same,TGI,OVCAR-5 ovarian,94.7 µM
same,TGI,OVCAR-8 ovarian,> 100 µM
same,TGI,PC-3 prostate,> 100 µM
same,TGI,RPMI-8226 leukemia,62.7 µM
same,TGI,SF-268 CNS,> 100 µM
same,TGI,SF-539 CNS,46.5 µM
same,TGI,SK-MEL-2 melanoma,> 100 µM
same,TGI,SK-MEL-28 melanoma,72.1 µM
same,TGI,SK-MEL-5 melanoma,82.5 µM
same,TGI,SN12C renal,> 100 µM
same,TGI,SNB-19 CNS,> 100 µM
same,TGI,SR leukemia,> 100 µM
same,TGI,SW-620 colon,> 100 µM
same,TGI,TK-10 renal,> 100 µM
same,TGI,U251 CNS,62.5 µM
same,TGI,UACC-257 melanoma,> 100 µM
same,TGI,UACC-62 melanoma,84.4 µM
same,TGI,UO-31 renal,> 100 µM
CC(OC(C)(C)C)[C@H](NC(=O)OCc1ccccc1)C(=O)NC(OCc1ccccc1)[C@H]1COC(C)(C)O1 (some centres undefined),TGI,786-0 renal,> 10 µM
same,TGI,A498 renal,> 10 µM
same,TGI,A549 NSCLC,> 100 µM
same,TGI,ACHN renal,> 10 µM
same,TGI,BT-549 breast,> 10 µM
same,TGI,CAKI-1 renal,> 10 µM
same,TGI,CCRF-CEM leukemia,> 10 µM
same,TGI,COLO 205 colon,> 10 µM
same,TGI,DU-145 prostate,> 100 µM
same,TGI,EKVX NSCLC,> 10 µM
same,TGI,HCC-2998 colon,> 10 µM
same,TGI,HCT-116 colon,> 100 µM
same,TGI,HCT-15 colon,> 10 µM
same,TGI,HL-60(TB) leukemia,> 10 µM
same,TGI,HOP-62 NSCLC,> 10 µM
same,TGI,HOP-92 NSCLC,> 10 µM
same,TGI,HS 578T breast,> 10 µM
same,TGI,HT29 colon,> 10 µM
same,TGI,IGROV1 ovarian,> 10 µM
same,TGI,K-562 leukemia,> 10 µM
same,TGI,KM12 colon,> 10 µM
same,TGI,LOX IMVI melanoma,> 10 µM
same,TGI,M14 melanoma,> 10 µM
same,TGI,MALME-3M melanoma,> 10 µM
same,TGI,MDA-MB-231 breast,> 10 µM
same,TGI,MDA-MB-435,> 10 µM
same,TGI,MDA-N,> 10 µM
same,TGI,MOLT-4 leukemia,> 10 µM
same,TGI,NCI-H226 lung,> 10 µM
same,TGI,NCI-H23 lung,> 10 µM
same,TGI,NCI-H460 lung,> 10 µM
same,TGI,NCI-H522 lung,> 10 µM
same,TGI,NCI/ADR-RES ovarian,> 10 µM
same,TGI,OVCAR-3 ovarian,> 10 µM
same,TGI,OVCAR-4 ovarian,> 10 µM
same,TGI,OVCAR-5 ovarian,> 10 µM
same,TGI,OVCAR-8 ovarian,> 10 µM
same,TGI,PC-3 prostate,> 10 µM
same,TGI,RXF 393 renal,> 100 µM
same,TGI,SF-268 CNS,> 100 µM
same,TGI,SF-295 CNS,> 10 µM
same,TGI,SF-539 CNS,> 10 µM
same,TGI,SK-MEL-2 melanoma,> 10 µM
same,TGI,SK-MEL-28 melanoma,> 100 µM
same,TGI,SK-MEL-5 melanoma,> 10 µM
same,TGI,SK-OV-3 ovarian,> 10 µM
same,TGI,SN12C renal,> 10 µM
same,TGI,SNB-19 CNS,> 10 µM
same,TGI,SNB-75 CNS,> 10 µM
same,TGI,SW-620 colon,> 10 µM
same,TGI,TK-10 renal,> 10 µM
same,TGI,U251 CNS,> 10 µM
same,TGI,UACC-257 melanoma,> 10 µM
same,TGI,UACC-62 melanoma,> 10 µM
same,TGI,UO-31 renal,> 10 µM
